We go through nine compounds from PMC10180076, “Novel Biologically Active N-Substituted Benzimidazole Derived Schiff Bases: Design, Synthesis, and Biological Evaluation” (Molecules, 2023).

Data set [1] concerns Capan-1, pancreatic adenocarcinoma. As to the kind of experiment: Proliferation assay (MTS, 72 h), Capan-1. Type of data set: cell-based, human. An excerpt: (§1) Human cancer cells used in this manuscript, namely Capan-1, HCT-116, NCI-H460, LN-229, HL-60, K-562, and Z-138, were acquired from the American Type Culture Collection (ATCC, Manassas, VA, USA), while the DND-41 cell line was purchased from the Deutsche Sammlung von Mikroorganismen und Zellkulturen (DSMZ Leibniz-Institut, Braunschweig, Germany). Culture media were purchased from Gibco Life Technologies, Merelbeke, Belgium, and supplemented with 10% fetal bovine serum (HyClone, Cytiva, Marlborough, MA, USA). Vincristine and docetaxel, which were used as the reference inhibitors, were purchased from Selleckchem (Munich, Germany). Stock solutions were prepared in DMSO.
(§2) Adherent cell lines LN-229, HCT-116, and NCI-H460 and Capan-1 cells were seeded at a density between 500 and 1500 cells per well, in 384-well tissue culture plates (Greiner, Kremsmünster, Austria). After overnight incubation, the cells were treated with seven different concentrations of the test compounds, ranging from 100 to 0.006 µM.
(§3) Suspension cell lines HL-60, K-562, Z-138, and DND-41 were seeded at densities ranging from 2500 to 5500 cells per well in 384-well culture plates containing the test compounds at the same concentration points. The cells were incubated for 72 h with the compounds and were then analyzed using the CellTiter 96® AQueous One Solution Cell Proliferation Assay (MTS) reagent (Promega, Madison, WI, USA) according to the manufacturer’s instructions. […] The compounds were tested in two independent experiments.

In a further data set the test system is LN-229, glioblastoma. As to the kind of experiment: Proliferation assay (MTS, 72 h), LN-229. Type of data set: cell-based, human.
Text: as §1, §2, §3

Data set [2] deals with DND-41, acute lymphoblastic leukemia. Description: Proliferation assay (MTS, 72 h), DND-41. Type of data set: cell-based, human.
Text: as §1, §2, §3

In data set [3] the test system is Z-138, non-Hodgkin lymphoma. As to the kind of experiment: Proliferation assay (MTS, 72 h), Z-138. Type of data set: cell-based, human.
Text: as §1, §2, §3

For the next data set, the system named is NCI-H460, lung carcinoma. Description: Proliferation assay (MTS, 72 h), NCI-H460. Format: cell-based, human.
Text: as §1, §2, §3

Data set [4] relates to HL-60, acute myeloid leukemia. As to the kind of experiment: Proliferation assay (MTS, 72 h), HL-60. Type of data set: cell-based, human.
Text: as §1, §2, §3

Data set [5] deals with HCT-116, colorectal carcinoma. Description: Proliferation assay (MTS, 72 h), HCT-116. Type of data set: cell-based, human.
Text: as §1, §2, §3

The subject of data set [6] is K-562, chronic myeloid leukemia. As to the kind of experiment: Proliferation assay (MTS, 72 h), K-562. Type of data set: cell-based, human.
Text: as §1, §2, §3

Where two headings read alike, the source gives them in different places.

For orientation: IC50 means the concentration needed to halve the response being measured. The low end stands for higher potency, the high end for lower potency. With “2-amino-1-phenylbenzimidazole [Compound 19]”, the IC50 was more than 100 µM in data set [1]; more than 100 µM with LN-229, glioblastoma; 98.3 µM in [2]; more than 100 µM in data set [3]; more than 100 µM with NCI-H460, lung carcinoma; more than 100 µM in [4]. In addition, the half-inhibitory concentration (IC50) in data set [5] and in data set [6] was more than 100 µM each time.

On to “2-amino-6-cyano-1-isobutylbenzimidazole [Compound 21]”, for which the IC50 in data set [1] is more than 100 µM; in the data set with LN-229, glioblastoma, more than 100 µM; in data set [2] it was more than 100 µM; in data set [3], more than 100 µM; in the data set on NCI-H460, lung carcinoma, 69.2 µM; in [4], more than 100 µM. In addition, the IC50 in data set [5] and in data set [6] was more than 100 µM each time.

The term melting point denotes the temperature, or range, at which the solid turns liquid. `CCCCCCn1c(N)nc2ccccc21` [Compound 20, 2-amino-1-hexylbenzimidazole] registered a melting point of 245 to 250 °C.

In turn, `CCCCCCn1c(N)nc2ccc(C#N)cc21` [Compound 24, 2-Amino-6-cyano-1-hexylbenzimidazole] had a melting point of 215 to 220 °C.

Take `CCN(CC)c1ccc(/C=N/c2nc3ccccc3n2CC(C)C)c(O)c1` [Compound 30, (E)-5-(Diethylamino)-2-(((1-isobutyl-1H-benzo[d]imidazol-2-yl)imino)methyl)phenol]: the IC50 was more than 100 µM in data set [1] (Homo sapiens, CAPAN-1); more than 100 µM in the data set on LN-229, glioblastoma (Homo sapiens, LN-229); more than 100 µM in [2] (Homo sapiens, DND41); more than 100 µM in [3] (Homo sapiens, Z-138); more than 100 µM in the data set on NCI-H460, lung carcinoma (Homo sapiens, NCI-H460); 70.4 µM in data set [4] (Homo sapiens, HL-60). Moreover, the IC50 in data set [5] (Homo sapiens, HCT-116) is more than 100 µM; in data set [6] (Homo sapiens, K562), more than 100 µM.

With `CCN(CC)c1ccc(/C=N/c2nc3ccccc3n2C)c(O)c1` [Compound 35, (E)-5-(Diethylamino)-2-(((1-methyl-1H-benzo[d]imidazol-2-yl)imino)methyl)phenol], the IC50 in data set [1] (Homo sapiens, CAPAN-1) is more than 100 µM; in the data set on LN-229, glioblastoma (Homo sapiens, LN-229) it was more than 100 µM; in data set [2] (Homo sapiens, DND41) it was more than 100 µM; in [3] (Homo sapiens, Z-138), more than 100 µM; in the data set with NCI-H460, lung carcinoma (Homo sapiens, NCI-H460), more than 100 µM; in [4] (Homo sapiens, HL-60) it was more than 100 µM. Also, the IC50 in [5] (Homo sapiens, HCT-116) was more than 100 µM; in data set [6] (Homo sapiens, K562), more than 100 µM.

`CCCCCCn1c(/N=C/c2ccc(N(CC)CC)cc2O)nc2ccc(C#N)cc21` [Compound 45, (E)-2-((4-(Diethylamino)-2-hydroxybenzylidene)amino)-1-hexyl-1H-benzo[d]imidazole-6-carbonitrile]: the IC50 in [1] (Homo sapiens, CAPAN-1) is more than 100 µM; in the data set on LN-229, glioblastoma (Homo sapiens, LN-229) it was more than 100 µM; in data set [2] (Homo sapiens, DND41), more than 100 µM; in data set [3] (Homo sapiens, Z-138), more than 100 µM; in the data set on NCI-H460, lung carcinoma (Homo sapiens, NCI-H460) it was more than 100 µM; in [4] (Homo sapiens, HL-60), more than 100 µM. In addition, the IC50 is more than 100 µM in data set [5] (Homo sapiens, HCT-116) and more than 100 µM in data set [6] (Homo sapiens, K562).

With `COc1cc([C@@H]2c3cc4c(cc3[C@@H](O[C@@H]3O[C@@H]5CO[C@@H](C)O[C@H]5[C@H](O)[C@H]3O)[C@H]3COC(=O)[C@H]23)OCO4)cc(OC)c1O` [ETP, etoposide, reference compound], the IC50 in data set [1] (Homo sapiens, CAPAN-1) turned out to be 0.43 µM; with LN-229, glioblastoma (Homo sapiens, LN-229), 2.4 µM; in data set [2] (Homo sapiens, DND41) it was 2.8 µM; in data set [3] (Homo sapiens, Z-138), 0.85 µM; in the data set with NCI-H460, lung carcinoma (Homo sapiens, NCI-H460) it was 3.65 µM; in data set [4] (Homo sapiens, HL-60), 0.42 µM. Moreover, the IC50 was 1.45 µM in [5] (Homo sapiens, HCT-116) and 1.77 µM in data set [6] (Homo sapiens, K562).

Turning to `COC(=O)Nc1nc2ccc(C(=O)c3cccs3)cc2[nH]1` [NZO, nocodazole, reference compound], the IC50 was determined as 0.1 µM in data set [1] (Homo sapiens, CAPAN-1); 0.29 µM in the data set on LN-229, glioblastoma (Homo sapiens, LN-229); 0.47 µM in data set [2] (Homo sapiens, DND41); 0.31 µM in [3] (Homo sapiens, Z-138); 0.25 µM in the data set with NCI-H460, lung carcinoma (Homo sapiens, NCI-H460); 0.1 µM in data set [4] (Homo sapiens, HL-60). Also, the 50% inhibitory concentration (IC50) in data set [5] (Homo sapiens, HCT-116) turned out to be 0.13 µM; in data set [6] (Homo sapiens, K562) it was 0.07 µM.
